Test results taken from patent US8703964B2, “Bendamustine cyclopolysaccharide compositions” (Supratek Pharma Inc., priority 2009, dated 2014).
pIC50: −log10 of the molar value.

Experiments:
[1] = Bendamustine chemical stability in plasma, HPLC (Example 31); assay type: in vitro ADME; settings: heparinized human plasma, 37° C., initially 0.015 mg/mL bendamustine; read-out: T½ in plasma (decomposition half time)
Procedure: Heparinized human plasma was spiked, 20 μL into 780 μL of plasma, with the following bendamustine (BM) compositions:
The concentration of bendamustine in plasma after spiking was initially 0.015 mg/mL. The spiked plasma samples were incubated at 37° C. A sample of 50 μL was periodically withdrawn from spiked plasma, and transferred into 200 μL of 100 mM HCl solution in acetonitrile, mixed and centrifuged. 50 μL of the supernatant was diluted 20 times with 95% acetonitrile, then 20 μL of diluted samples were separated on Waters SymmetryShield RP18 3.5 μm column (4.6×50 mm) using gradient of acetonitrile (0.1% TFA) in water (0.1% TFA), flow 1.5 mL/min. Peak detection was performed by means of fluorescence detection with […] at 327 nm and emission at 420 nm. The area of the peak of Bendamustine was used to evaluate the rate of drug decomposition in the first order kinetics model.

[2] = Pharmacokinetics of bendamustine dosed to rats, composition with SBECD and PI2080 (Example 12); assay type: in vivo, Female Sprague-Dawley rats; settings: i.v. 10 mg/kg
Procedure: (§1) Control: 2.5 mg/mL bendamustine hydrochloride, 4.25 mg/mL of mannitol in 0.9% NaCl; dose of 10 mg/kg
Inventive Composition: 2.5 mg/mL bendamustine hydrochloride, 40% w/w sodium sulfobutyl ether β-cyclodextrin, 1% PI2080, 4.3 mg/g mannitol in water (prepared according to the procedure set forth in Example 9); dose of 10 mg/kg.
Female Sprague-Dawley rats (250-350 g). The animals were kept three per cage with an air filter cover under light (12 h light/dark cycle, light on at 06 h00) and controlled temperature 22° C.+/−1° C. All manipulations with the animals were performed under a sterilized laminar hood. The animals had ad libitum access to Purina mouse chow and water. The animals were fasted overnight and anesthetized, before dosing. Dosing and Sampling: Inventive bendamustine composition and control were administered intravenously to rats in tail vein. Blood samples were collected after time intervals of 5, 15, 30, 45 min, 1, 1.5, 2 and 3 hrs post-injection, The rats were anesthetised by general inhalation of isoflurane. The blood samples were collected from the jugular vein with heparinized tube and kept on ice. The blood was immediately centrifuged, and plasma was separated. The plasma samples were immediately extracted. Sample Extraction and Analysis: The plasma samples 0.100 mL were transferred to plastic tubes. The samples were extracted with 0.400 mL of 100 mM HCl in acetonitrile while being shaken vigorously for 30 seconds. The samples were centrifuged at 10000 RPM for 5 minutes. The supernatant was separated. The samples were frozen in dry ice and kept at −80° C. until HPLC analysis. The aliquots of 20 microliters were injected into HPLC for analysis. The HPLC Conditions: C18 reversed phase column 50×4.6 mm, Symmetry/Shield 3.5 micrometer Column temperature 30° C. Flow rate 1.5 mL/min Injection volume 20 microliters Fluorescence detection at wavelengths: excitation 327 nm, emission 420 nm Mobile phase: Buffer A: 5% acetonitrile 0.1% TFA Buffer B: 90% acetonitrile 0.1% TFA Run time: 10 min The improved pharmacokinetic profiles of Bendamustine for tested inventive composition versus the control is shown in Table 2 below.

[3] = Pharmacokinetics of bendamustine dosed to rats, composition with SBECD and protamine sulphate (Example 13); assay type: in vivo; settings: female, Sprague-Dawley, rat, plasma, iv, i.v. 10 mg/kg, read-out: Concentration of bendamustine in rat plasma, Mean (SEM)
Procedure: as §1
Inventive Composition: 2.5 mg/mL bendamustine hydrochloride, 40% w/w sodium sulfobutyl ether β-cyclodextrin, 3% protamine sulfate, 4.3 mg/g mannitol in water (produced according to the process described in Example 10); dose of 10 mg/kg.
Female Sprague-Dawley rats (250-350 g). The animals were kept three per cage with an air filter cover under light (12 h light/dark cycle, light on at 06 h00) and controlled temperature of 22° C.+/−1° C. All manipulations with the animals were performed under a sterilized laminar hood. The animals had ad libitum access to Purina mouse chow and water. The animals were fasted overnight and anesthetized, before dosing. Dosing and Sampling: Bendamustine composition and control were administered intravenously to rats in tail vein. After time intervals 5, 15, 30, 45 min, 1, 1.5, 2 and 3 hrs post-injection, the blood samples were collected. The rats were anesthetized by general inhalation of isoflurane. The blood samples were collected from the jugular vein with heparinized tube and kept on ice. Blood was immediately centrifuged, and plasma was separated. The plasma samples were immediately extracted. Sample Extraction and Analysis: The plasma samples 0.100 mL were transferred to plastic tubes. The samples were extracted with 0.400 mL of 100 mM HCl in acetonitrile while being shaken vigorously for 30 seconds. The samples were centrifuged at 10000 RPM for 5 minutes. The supernatant was separated. The samples were frozen in dry ice and kept at −80° C. until HPLC analysis. 20 microliter aliquots were injected into HPLC for analysis. The HPLC conditions: C18 reversed phase column 50×4.6 mm, Symmetry/Shield 3.5 micrometer Column temperature 30° C. Flow rate 1.5 mL/min Injection volume 20 microliters Fluorescence detection at wavelengths: excitation 327 nm, emission 420 nm Mobile phase: Buffer A: 5% acetonitrile 0.1% TFA Buffer B: 90% acetonitrile 0.1% TFA Run time: 10 min The improved pharmacokinetic profiles of Bendamustine for tested composition versus the control is shown in Table 3 below.

RPMI8226 cells = assay: Cytotoxicity of bendamustine composition comprising SBECD and LMWP, WST-1 (Example 24); assay type: cell-based; settings: Homo sapiens, RPMI-8226, 72 h, read-out: drug cytotoxicity (WST-1), Table 8
Procedure: (§2) RPMI8226, H69, MDA-MB-231, and H460 cells were maintained in appropriate medium, containing 10% FBS and antibiotics. 24 h after plating, bendamustine, and bendamustine formulated in SBECD/LMWP (40 mg/ml BM in 20% SBECD, 1% LMWP) were added in different concentrations to cell cultures and cells were grown for three days. The drug cytotoxicity was evaluated using WST-1 procedure.

H460 cells = assay: as above; assay type: cell-based; settings: Homo sapiens, NCI-H460, 72 h, read-out: drug cytotoxicity (WST-1), Table 8
Procedure: as §2

H69 cells = assay: as above; assay type: cell-based; settings: Homo sapiens, NCI-H69, 72 h, read-out: drug cytotoxicity (WST-1), Table 8
Procedure: as §2

MDA-MB-231 cells = assay: as above; assay type: cell-based; settings: Homo sapiens, MDA-MB-231, 72 h, read-out: drug cytotoxicity (WST-1), Table 8
Procedure: as §2

`Cn1c(CCCC(=O)O)nc2cc(N(CCCl)CCCl)ccc21` [BM, 4-[5-[bis(2-chloroethyl)amino]-1-methylbenzimidazol-2-yl]butanoic acid] showed a half-life at 0.015 mg/mL [1] of 2.05 h, a concentration at 0.08 h ([2]; female, Sprague-Dawley, rat, plasma, iv, 0.08 h post injection, read-out: Concentration of bendamustine in rat plasma, Mean (SEM)) of 6040 ng/mL and a concentration at 0.25 h ([2]; female, Sprague-Dawley, rat, plasma, iv, 0.25 h post injection, read-out: Concentration of bendamustine in rat plasma, Mean (SEM)) of 2430 ng/mL. The concentration at 0.5 h ([2]; female, Sprague-Dawley, rat, plasma, iv, 0.5 h post injection, read-out: Concentration of bendamustine in rat plasma, Mean (SEM)) was 520 ng/mL, the concentration at 0.75 h ([2]; female, Sprague-Dawley, rat, plasma, iv, 0.75 h post injection, read-out: Concentration of bendamustine in rat plasma, Mean (SEM)) was 145 ng/mL and the concentration at 1.5 h ([2]; female, Sprague-Dawley, rat, plasma, iv, 1.5 h post injection, read-out: Concentration of bendamustine in rat plasma, Mean (SEM)) was 8 ng/mL. The concentration at 2 h ([2]; female, Sprague-Dawley, rat, plasma, iv, 2 h post injection, read-out: Concentration of bendamustine in rat plasma, Mean (SEM)) was 2 ng/mL, the “Concentration of bendamustine in rat plasma, Mean (SEM)” value ([2]; 1 h post injection) was 48 (11) ng/mL and the “Concentration of bendamustine in rat plasma, Mean (SEM)” value ([2]; 3 h post injection) was 0 (1) ng/mL. It also gave a concentration at 0.08 h ([3]; 0.08 h post injection) of 6040 ng/mL, a concentration at 0.25 h ([3]; 0.25 h post injection) of 2430 ng/mL and a concentration at 0.5 h ([3]; 0.5 h post injection) of 520 ng/mL. For the same compound, the concentration at 0.75 h ([3]; 0.75 h post injection) was 145 ng/mL, the concentration at 1 h ([3]; 1 h post injection) was 48 ng/mL and the concentration at 1.5 h ([3]; 1.5 h post injection) was 8 ng/mL. For the same compound, the concentration at 2 h ([3]; 2 h post injection) was 2 ng/mL, the concentration at 3 h ([3]; 3 h post injection) was 0 ng/mL and the pIC50 (RPMI8226 cells) was 3.93. For the same compound, the pIC50 (H460 cells) was 3.22, the pIC50 (H69 cells) was 3.60 and the pIC50 (MDA-MB-231 cells) was 3.22.
